Consider three molecules from patent US20250134869A1, “Pyrrolo[2,3-d]pyrimidinyl, Pyrrolo[2,3-b]pyrazinyl and Pyrrolo[2,3-d]pyridinyl Acryla-mides” (Pfizer Inc, priority 2021, published 2025).

Where two headings read alike, the source gives them in different places.

The IC50 is the concentration needed to halve the response being measured.

The subject of data set [1] is IL-15 induced STAT5 phosphorylation in human whole blood lymphocytes. Kind of data set: HWB IL-15 induced STAT5 phosphorylation assay. Particulars: IL-15 stimulated, read-out: HWB-IL15-pSTAT5 IC50. It is filed as cell-based. The method, then: HWB IL-15 Induced STAT5 Phosphorylation Assay
After mixing and incubating for 45 minutes at 37° C., 5 μl D-PBS (unstimulated control) or 20× stocks of 5 μl human IL-15 (final concentration is 50 ng/ml) were added, and mixed three times. After incubating 15 minutes at 37° C., 1× Lyse/Fix Buffer (BD Phosflow 5× Lyse/Fix Buffer) was added to all wells at 1000 μl/well, then incubated for 20 minutes at 37° C. and spun 5 mins at 1200 rpm. […] Following incubating at 4° C. over night, all the samples were transferred to 96-well polypropylene U-bottom plate, and checked by flow cytometry gated on total lymphocytes.

Data set [2] relates to IL-15 induced P-STAT5 in human PBMC. Kind of data set: PBMC IL-15 induced P-STAT5. In kind it is cell-based. The conditions noted are these: read-out: PBMC IL15-pSTAT5 IC50. The procedure, abridged:
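Thawed human PBMC in RPMI, preincubated 30 min at 37 °C, then IL-15 stimulated. Cells methanol-permeabilized (90%, on ice 20 min) and stained for phospho-STAT5. Read by flow cytometry, gated on total lymphocytes.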

In data set [3] the target is JAK3 enzyme (Homo sapiens (Human), UniProt P52333). The experiment in a line: JAK Caliper Enzyme Assay at 4 μM or 1 mM ATP. In kind it is biochemical.
Data set [4] is described as follows: Stability of JAK3 covalent inhibitors in human whole blood. The conditions noted are these: 1 μM, 37° C.
Excerpt: Stability of JAK3 Covalent Inhibitors in Rat and Human Whole Blood
Rat blood was collected from 3 male Sprague-Dawley rats (200-250 g, Charles River Laboratories) and pooled for each study. Human blood was collected from one male and one female healthy subjects at the Occupational Health & Wellness Center at Pfizer, Groton, CT and pooled for each study. Both rat and human blood was collected freshly into K2-EDTA tubes and kept on ice. An aliquot of the blood was transferred to microtubes and pre-warmed for 10 min at 37° C. using a heat block. […] An aliquot of the incubation mixture was removed at designated time points during the course of the incubation, mixed with an aliquot of acetonitrile containing an internal standard, vortexed and centrifuged. The resulting supernatants were removed and subjected to LC-MS/MS analyses to determine parent compound concentrations. Peak area ratios of the parent compound vs the internal standard were used to determine the % of parent compound remaining vs incubation time.

Sequence of JAK3 enzyme (P52333 whole entry, species assumed): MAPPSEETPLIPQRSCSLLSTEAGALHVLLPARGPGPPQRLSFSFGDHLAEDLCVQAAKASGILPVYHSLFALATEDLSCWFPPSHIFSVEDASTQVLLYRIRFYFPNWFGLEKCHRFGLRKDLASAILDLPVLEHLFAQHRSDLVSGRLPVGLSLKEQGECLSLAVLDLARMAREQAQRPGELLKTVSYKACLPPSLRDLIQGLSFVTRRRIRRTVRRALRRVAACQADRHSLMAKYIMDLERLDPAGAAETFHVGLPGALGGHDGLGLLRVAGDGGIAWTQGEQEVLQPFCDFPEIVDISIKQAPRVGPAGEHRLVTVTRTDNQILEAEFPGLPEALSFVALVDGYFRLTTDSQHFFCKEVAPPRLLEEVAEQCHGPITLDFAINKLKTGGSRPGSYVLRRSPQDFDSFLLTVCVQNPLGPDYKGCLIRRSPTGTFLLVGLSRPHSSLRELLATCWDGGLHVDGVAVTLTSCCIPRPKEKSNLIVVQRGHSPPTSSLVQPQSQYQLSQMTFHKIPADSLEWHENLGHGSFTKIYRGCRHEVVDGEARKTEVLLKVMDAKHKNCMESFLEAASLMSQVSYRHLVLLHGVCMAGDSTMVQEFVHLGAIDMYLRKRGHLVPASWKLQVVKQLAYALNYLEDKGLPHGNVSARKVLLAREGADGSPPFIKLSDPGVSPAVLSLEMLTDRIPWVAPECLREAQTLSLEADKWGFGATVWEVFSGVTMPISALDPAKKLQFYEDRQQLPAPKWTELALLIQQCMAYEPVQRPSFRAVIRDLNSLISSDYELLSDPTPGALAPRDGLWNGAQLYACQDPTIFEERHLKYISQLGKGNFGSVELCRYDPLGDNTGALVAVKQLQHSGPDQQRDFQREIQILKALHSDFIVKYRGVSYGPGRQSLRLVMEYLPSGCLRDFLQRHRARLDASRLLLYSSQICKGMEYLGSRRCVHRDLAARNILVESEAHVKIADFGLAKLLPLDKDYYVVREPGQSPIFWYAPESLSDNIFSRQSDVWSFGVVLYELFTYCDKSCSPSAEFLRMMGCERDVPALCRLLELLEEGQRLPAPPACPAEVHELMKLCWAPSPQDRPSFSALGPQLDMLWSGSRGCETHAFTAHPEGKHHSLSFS

Regarding `C=CC(=O)N1CCC[C@@H](Nc2ccnc3[nH]cc(C#N)c23)C1` [Example 2, (R)-4-((1-acryloylpiperidin-3-yl)amino)-1H-pyrrolo[2,3-b]pyridine-3-carbonitrile], the “Human blood stability t1/2” value is over 6 h. The IC50 in data set [1] came out at 0.22 µM. In data set [2], the IC50 was found to be 0.0304 µM. Further, the IC50 in data set [3] (read-out: JAK3 (4 μM ATP) IC50) is 0.0002 µM. The IC50 in data set [3] (read-out: JAK3 (1 mM ATP) IC50) was 0.0189 µM.
For `C=CC(=O)N1C[C@H](Nc2ncnc3[nH]ccc23)CC[C@@H]1CO` (single isomer, unassigned) [Example 7], the IC50 was 0.455 µM in data set [1] (Lymphocyte) and 0.0769 µM in data set [2] (Homo sapiens, PBMC, human PBMC, IL-15 stimulated). Besides, the “Human blood stability t1/2” value in data set [4] is over 5.558 h.
Take `C=CC(=O)N1CCC[C@@H](Nc2ncnc3[nH]cc(-c4ccc(C(=O)NC5CC5)c(Cl)c4)c23)C1` [Example 31, 4-(4-{[(3R)-1-acryloylpiperidin-3-yl]amino}-7H-pyrrolo[2,3-d]pyrimidin-5-yl)-2-chloro-N-cyclopropylbenzamide]: the “Human blood stability t1/2” value is over 6 h. The IC50 in data set [3] (read-out: JAK3 (4 μM ATP) IC50) worked out at 0.0241 µM. Further, the IC50 in data set [3] (read-out: JAK3 (1 mM ATP) IC50) is 1.86 µM.
